Data reported in US12569658B2, “Intranasal and olfactory delivery devices and methods of use” (Rocket Science Health Corp., priority 2023, dated 2026).

Assay: Lateralized olfactory delivery of oxytocin via cannula into the right nostril; brain distribution by mass spectrometry imaging (MSI)
Type: in vivo, Sprague-Dawley male rats
Settings: for Blue Pixel Count (intensity corresponding to oxytocin): 30 mg/kg, 25 μL into right nostril, 2 hours, pixels with B-value exceeding 180
Procedure: Sprague-Dawley male rats (150˜250 g) n=3 per time point×2 time points were used in this study. Animals were fasted per facility protocols (free access to water). Sedation by 50 mg/kg pentobarbital or equivalent procedure and maintenance with isoflurane. Test article administration: The animal is kept supine with the head kept at an angle to minimize movement of the olfactory plane above zero degrees (to prevent gravity drainage into the olfactory cleft). In this study Oxytocin (30 mg/kg) was delivered via the canulated olfactory delivery model which is: a 0.699 mm diameter cannula with lipophilic ointment spread on the catheter which is carefully inserted into the right nostril with a minimal angle of 20° to the target of the correct meatus. The left nostril is occluded with a non-toxic quick setting compound to prevent cross contamination. During insertion the catheter is rotated gently to advance it through the tight nasal cavity. Once the catheter reaches the ethmoid turbinate it cannot be advance gently anymore (˜15 mm). 25 μL of oxytocin is slowly instilled in the olfactory region (FIGS. 23A-B). The animals were kept sedated for 2 hours. After 2 hours, the animals were humanely euthanized by cervical dislocation. Sample collection: Olfactory bulb and brain: Rats olfactory bulb and brain were collected and snap-freeze in liquid nitrogen. The tissue was stored at −80 C until analysis. Sample Preparation: Olfactory bulb and brain samples was homogenized with ice-cold phosphate buffer saline (pH 7.4) at a ratio of 4 (buffer): 1 (tissue) (v/w). An aliquot of 20 μL homogenate was spiked into 1.5 mL tube, and 100 μL of acetonitrile containing internal standard were added for protein precipitation. The mixture was vortexed, centrifuged at 14000 rpm for 5 min. 80 μL supernatant was transferred into a 96 well plate, and 240 μL of sterile deionized water was added, the mixture was vortexed and injected for LC-MS/MS analysis.
Sample analysis: Test compound in olfactory bulb, brain, and plasma samples will be analyzed by LC/MS/MS. Calibration curve was constructed in blank olfactory bulb homogenate. Using a High-throughput RapifleX MALDI-TOF/TOF mass spectrometer the samples were analyzed utilizing non-labeled detection technologies. This is important as this technique explores the regional distribution patterns of target molecule (FIG. 24). The frozen section of brain tissue was cut into 12 μm sections. Oxytocin at 200, […], 50, 20, 10, 5, 2 ng were used as standard in blank brain slide. And substrate were sprayed on the slides. The sample of the tissue section was ionized and desorbed with the substrate under the excitation of the laser beam. The released ions were identified with mass spectrometer. The detection levels were 2.68 ng/mm^2 (FIGS. 25A-D). To visualize the lateralized drug transfer through the brain the brain was sectioned into olfactory bulb, striatum and cerebrum sections (FIG. 26) and imaged with the Mass Spectrometry Imaging (MSI) system.
The images shown in FIGS. 27A-C were analyzed to estimate the relative concentration of oxytocin on each side of the brain. Image data was converted into a standard RGB color-map, with each of the red (R), green (G), and blue (B) values taking a value between 0 and 255. Pixels with B-values exceeding 180 were counted on each side of the brain, yielding the results in Table 1.

ratio of blue pixels, targeted over untargeted half of the brain (Cerebrum, 921/638): 1.44
Blue Pixel Count (intensity corresponding to oxytocin) (Cerebrum, Left hemisphere (untargeted)): 638
Blue Pixel Count (intensity corresponding to oxytocin) (Cerebrum, Right hemisphere (targeted)): 921
ratio of blue pixels, targeted over untargeted half of the brain (Olfactory, 962/475): 2.03
Blue Pixel Count (intensity corresponding to oxytocin) (Olfactory, Left hemisphere (untargeted)): 475
Blue Pixel Count (intensity corresponding to oxytocin) (Olfactory, Right hemisphere (targeted)): 962
ratio of blue pixels, targeted over untargeted half of the brain (Striatum, 7055/4085): 1.73
Blue Pixel Count (intensity corresponding to oxytocin) (Striatum, Left hemisphere (untargeted)): 4085
Blue Pixel Count (intensity corresponding to oxytocin) (Striatum, Right hemisphere (targeted)): 7055
excess drug concentration on the targeted side of the brain (across the three studied regions (Cerebrum, Olfactory, Striatum)): 44-103%
distribution of oxytocin by MSI (FIG. 27A) (olfactory bulb slice): preferential right side distribution
SMILES: CC[C@H](C)[C@@H]1NC(=O)[C@H](Cc2ccc(O)cc2)NC(=O)[C@@H](N)CSSC[C@@H](C(=O)N2CCC[C@H]2C(=O)N[C@@H](CC(C)C)C(=O)NCC(N)=O)NC(=O)[C@H](CC(N)=O)NC(=O)[C@H](CCC(N)=O)NC1=O [oxytocin, Oxytocin]
distribution of oxytocin by MSI (FIG. 27C) (cerebrum slice): lateralization coinciding with the targeted (right) hemisphere
distribution of oxytocin by MSI (FIG. 27B) (striatum slice): continued preferential right side distribution
